The text below walks through data of ChEMBL document CHEMBL5346973 (J Med Chem, 2023).

Molecules are shown by their SMILES. Calls of active or inactive are those of the source. No cut-off for these calls is given here. Where a SMILES comes first, the peptide text is derived from it.

Type in all cases: cell-based
For test [1], the target named is Nicotinic acetylcholine receptor alpha9/alpha10 (Rattus norvegicus, UniProt P43144+Q9JLB5). Nature of the test: Antagonist activity at rat alpha9alpha10 nACh receptor expressed in Xenopus oocyte assessed as inhibition of acetylcholine-induced response at -70 mV holding potential by voltage-clamp based electrophysiological assay.
In test [2] the target is Nicotinic acetylcholine receptor alpha9/alpha10 (Rattus norvegicus) (UniProt P43144+Q9JLB5). Nature of the test: Antagonist activity at rat alpha9alpha10 nACh receptor expressed in Xenopus oocyte assessed as inhibition of acetylcholine-induced response at -70 mV holding potential at 10 uM measured after 5 mins by voltage-clamp based electrophysiological assay.
Test [3] has as its target Neuronal acetylcholine receptor subunit alpha-7 (Rattus norvegicus, UniProt Q05941). Nature of the test: Antagonist activity at rat alpha7 nACh receptor expressed in Xenopus oocyte assessed as inhibition of acetylcholine-induced response at -70 mV holding potential by voltage-clamp based electrophysiological assay.

Sequence of Nicotinic acetylcholine receptor alpha9/alpha10 (P43144 whole entry): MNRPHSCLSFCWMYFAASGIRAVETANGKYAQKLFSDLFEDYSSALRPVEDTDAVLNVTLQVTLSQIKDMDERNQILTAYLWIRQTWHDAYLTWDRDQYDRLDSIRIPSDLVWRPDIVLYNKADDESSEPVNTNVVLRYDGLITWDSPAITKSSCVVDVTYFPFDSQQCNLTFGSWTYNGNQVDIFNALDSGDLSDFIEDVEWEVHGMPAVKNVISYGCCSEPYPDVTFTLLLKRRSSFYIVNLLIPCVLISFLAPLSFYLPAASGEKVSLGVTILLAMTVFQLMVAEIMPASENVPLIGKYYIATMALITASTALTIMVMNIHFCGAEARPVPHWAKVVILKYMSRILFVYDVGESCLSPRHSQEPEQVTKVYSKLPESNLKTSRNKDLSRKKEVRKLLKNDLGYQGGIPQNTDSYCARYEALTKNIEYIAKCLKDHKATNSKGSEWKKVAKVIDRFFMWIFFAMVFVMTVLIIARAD
Sequence of Nicotinic acetylcholine receptor alpha9/alpha10 (Q9JLB5 whole entry): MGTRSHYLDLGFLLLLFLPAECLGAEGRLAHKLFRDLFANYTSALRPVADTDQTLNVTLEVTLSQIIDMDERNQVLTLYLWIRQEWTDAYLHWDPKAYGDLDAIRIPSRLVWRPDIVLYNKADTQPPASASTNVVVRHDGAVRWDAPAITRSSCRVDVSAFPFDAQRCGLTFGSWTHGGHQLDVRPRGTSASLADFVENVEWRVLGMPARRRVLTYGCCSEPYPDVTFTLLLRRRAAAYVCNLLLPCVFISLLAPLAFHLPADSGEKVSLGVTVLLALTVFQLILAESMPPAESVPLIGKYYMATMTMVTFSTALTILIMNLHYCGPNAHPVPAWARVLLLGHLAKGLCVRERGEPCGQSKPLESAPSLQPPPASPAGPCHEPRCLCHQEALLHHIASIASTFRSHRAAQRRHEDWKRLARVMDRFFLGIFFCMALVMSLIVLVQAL
Sequence of Neuronal acetylcholine receptor subunit alpha-7 (Q05941 whole entry): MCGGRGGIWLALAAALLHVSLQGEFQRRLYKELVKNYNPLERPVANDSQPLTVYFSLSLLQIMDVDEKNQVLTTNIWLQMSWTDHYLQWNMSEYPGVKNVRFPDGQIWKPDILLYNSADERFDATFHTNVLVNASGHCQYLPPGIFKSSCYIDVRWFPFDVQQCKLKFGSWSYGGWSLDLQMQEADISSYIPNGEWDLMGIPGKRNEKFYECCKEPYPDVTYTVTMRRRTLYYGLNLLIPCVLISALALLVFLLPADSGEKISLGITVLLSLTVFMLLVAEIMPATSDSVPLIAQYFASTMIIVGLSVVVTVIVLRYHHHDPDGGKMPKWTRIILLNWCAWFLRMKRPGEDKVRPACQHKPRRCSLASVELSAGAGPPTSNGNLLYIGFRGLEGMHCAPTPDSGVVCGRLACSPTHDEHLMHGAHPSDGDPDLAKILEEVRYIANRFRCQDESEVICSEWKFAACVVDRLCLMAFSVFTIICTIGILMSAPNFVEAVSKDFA

What is called IC50 is the concentration needed to halve the response being measured. As for `CC[C@H](C)[C@@H]1NC(=O)[C@H](CCCNC(=N)N)NC(=O)[C@H](CCCNC(=N)N)NC(=O)[C@@H](NC(=O)[C@H](Cc2ccc(O)cc2)NC(=O)[C@H](CCCNC(=N)N)NC(=O)[C@H](CCCNC(=N)N)NC(=O)[C@H](CCCNC(=N)N)NC(=O)[C@H](CCCNC(=N)N)NC(=O)[C@H](CC(=O)O)NC(=O)[C@H](Cc2ccc(O)cc2)NC(=O)[C@@H]2CCCN2C(=O)[C@H](CO)NC(=O)[C@H](C)NC(=O)[C@@H]2CSSC[C@H](NC(=O)[C@@H](N)[C@@H](C)O)C(=O)N[C@@H](C)C(=O)N[C@@H](CO)C(=O)N[C@@H](CO)C(=O)N[C@@H](C)C(=O)N[C@@H](CCCNC(=N)N)C(=O)N[C@@H](Cc3ccc(O)cc3)C(=O)N2)CSSC[C@@H](C(=O)N[C@H](C(=O)O)C(C)C)NC(=O)[C@H](C)NC(=O)[C@H](CC(=O)O)NC(=O)[C@H]([C@@H](C)O)NC1=O` (HELM PEPTIDE1{T.C.A.S.S.A.R.Y.C.A.S.P.Y.D.R.R.R.R.Y.C.R.R.I.T.D.A.C.V}$PEPTIDE1,PEPTIDE1,2:R3-9:R3|PEPTIDE1,PEPTIDE1,20:R3-27:R3$$$V2.0), the half-inhibitory concentration (IC50) in test [1] is > 10000 nM. Further, in test [2], the outcome was inactive.

`CC[C@H](C)[C@@H]1NC(=O)[C@H](CCCNC(=N)N)NC(=O)[C@H](CCCNC(=N)N)NC(=O)[C@@H]2CSSC[C@H](NC(=O)[C@H](Cc3ccc(O)cc3)NC(=O)[C@H](CCCNC(=N)N)NC(=O)CNC(=O)[C@H](CO)NC(=O)[C@H](CO)NC(=O)[C@H](C)NC(=O)[C@@H](NC(=O)[C@@H](N)[C@@H](C)O)CSSC[C@@H](C(=O)N[C@H](C(=O)O)C(C)C)NC(=O)[C@H](C)NC(=O)[C@H](CC(=O)O)NC(=O)[C@H]([C@@H](C)O)NC1=O)C(=O)N[C@@H](CCCNC(=N)N)C(=O)N[C@@H](CO)C(=O)N1CCC[C@H]1C(=O)N[C@@H](Cc1ccc(O)cc1)C(=O)N[C@@H](CC(=O)O)C(=O)N[C@@H](CCCNC(=N)N)C(=O)N[C@@H](CCCNC(=N)N)C(=O)N[C@@H](CCCNC(=N)N)C(=O)N[C@@H](CCCNC(=N)N)C(=O)N[C@@H](Cc1ccc(O)cc1)C(=O)N2`: the IC50 was 9050 nM in test [3] and 37 nM in test [1].

For `CC[C@H](C)[C@H]1NC(=O)[C@H](CCCNC(=N)N)NC(=O)[C@H](CCCNC(=N)N)NC(=O)[C@@H](NC(=O)[C@H](Cc2ccc(O)cc2)NC(=O)[C@H](CCCNC(=N)N)NC(=O)[C@H](CCCNC(=N)N)NC(=O)[C@H](CCCNC(=N)N)NC(=O)[C@H](CCCNC(=N)N)NC(=O)[C@H](CC(=O)O)NC(=O)[C@H](Cc2ccc(O)cc2)NC(=O)[C@@H]2CCCN2C(=O)[C@H](CO)NC(=O)[C@H](CCCNC(=N)N)NC(=O)[C@@H]2CSSC[C@H](NC(=O)[C@@H](N)[C@@H](C)O)C(=O)N[C@@H](C)C(=O)N[C@@H](CO)C(=O)N[C@@H](CO)C(=O)NCC(=O)N[C@@H](CCCNC(=N)N)C(=O)N[C@@H](Cc3ccc(O)cc3)C(=O)N2)CSSC[C@@H](C(=O)N[C@H](C(=O)O)C(C)C)NC(=O)[C@H](C)NC(=O)[C@H](CC(=O)O)NC(=O)[C@H]([C@@H](C)O)NC1=O`, the IC50 turned out to be 1130 nM in test [3] and 74 nM in test [1].

`CC[C@H](C)[C@@H]1NC(=O)[C@H](C)NC(=O)[C@H](C)NC(=O)[C@@H](NC(=O)[C@H](Cc2ccc(O)cc2)NC(=O)[C@H](C)NC(=O)[C@H](C)NC(=O)[C@H](C)NC(=O)[C@H](C)NC(=O)[C@H](CC(=O)O)NC(=O)[C@H](Cc2ccc(O)cc2)NC(=O)[C@@H]2CCCN2C(=O)[C@H](CO)NC(=O)[C@H](C)NC(=O)[C@@H]2CSSC[C@H](NC(=O)[C@@H](N)[C@@H](C)O)C(=O)N[C@@H](C)C(=O)N[C@@H](CO)C(=O)N[C@@H](CO)C(=O)NCC(=O)N[C@@H](C)C(=O)N[C@@H](Cc3ccc(O)cc3)C(=O)N2)CSSC[C@@H](C(=O)N[C@H](C(=O)O)C(C)C)NC(=O)[C@H](C)NC(=O)[C@H](CC(=O)O)NC(=O)[C@H]([C@@H](C)O)NC1=O` (HELM PEPTIDE1{T.C.A.S.S.G.A.Y.C.A.S.P.Y.D.A.A.A.A.Y.C.A.A.I.T.D.A.C.V}$PEPTIDE1,PEPTIDE1,2:R3-9:R3|PEPTIDE1,PEPTIDE1,20:R3-27:R3$$$V2.0): the half-maximal inhibitory concentration (IC50) in test [1] was > 10000 nM. The outcome in test [2] was inactive.

For `CC[C@H](C)[C@@H]1NC(=O)[C@H](CCCNC(=N)N)NC(=O)[C@H](CCCNC(=N)N)NC(=O)[C@@H](NC(=O)[C@H](Cc2ccc(O)cc2)NC(=O)[C@H](CCCNC(=N)N)NC(=O)[C@H](C)NC(=O)[C@H](C)NC(=O)[C@H](CCCNC(=N)N)NC(=O)[C@H](CC(=O)O)NC(=O)[C@H](Cc2ccc(O)cc2)NC(=O)[C@@H]2CCCN2C(=O)[C@H](CO)NC(=O)[C@H](CCCNC(=N)N)NC(=O)[C@@H]2CSSC[C@H](NC(=O)[C@@H](N)[C@@H](C)O)C(=O)N[C@@H](CCCNC(=N)N)C(=O)N[C@@H](CO)C(=O)N[C@@H](CO)C(=O)NCC(=O)N[C@@H](CCCNC(=N)N)C(=O)N[C@@H](Cc3ccc(O)cc3)C(=O)N2)CSSC[C@@H](C(=O)N[C@H](C(=O)O)C(C)C)NC(=O)[C@H](C)NC(=O)[C@H](CC(=O)O)NC(=O)[C@H]([C@@H](C)O)NC1=O`, the IC50 in test [1] worked out at 130 nM.

For the molecule `CC[C@H](C)[C@@H]1NC(=O)[C@H](C)NC(=O)[C@H](C)NC(=O)[C@@H](NC(=O)[C@H](Cc2ccc(O)cc2)NC(=O)[C@H](CCCNC(=N)N)NC(=O)[C@H](CCCNC(=N)N)NC(=O)[C@H](CCCNC(=N)N)NC(=O)[C@H](CCCNC(=N)N)NC(=O)[C@H](CC(=O)O)NC(=O)[C@H](Cc2ccc(O)cc2)NC(=O)[C@@H]2CCCN2C(=O)[C@H](CO)NC(=O)[C@H](CCCNC(=N)N)NC(=O)[C@@H]2CSSC[C@H](NC(=O)[C@@H](N)[C@@H](C)O)C(=O)N[C@@H](CCCNC(=N)N)C(=O)N[C@@H](CO)C(=O)N[C@@H](CO)C(=O)NCC(=O)N[C@@H](CCCNC(=N)N)C(=O)N[C@@H](Cc3ccc(O)cc3)C(=O)N2)CSSC[C@@H](C(=O)N[C@H](C(=O)O)C(C)C)NC(=O)[C@H](C)NC(=O)[C@H](CC(=O)O)NC(=O)[C@H]([C@@H](C)O)NC1=O`, in test [1], the IC50 was determined as 180 nM.

Consider `CC(C)C[C@H](NC(=O)[C@H](CCCCN)NC(=O)[C@H](CC(N)=O)NC(=O)[C@@H]1CCCN1C(=O)[C@H](CCC(N)=O)NC(=O)[C@H](C)NC(=O)CNC(=O)[C@H](CO)NC(=O)[C@H](CCCCN)NC(=O)[C@H](CCC(=O)O)NC(=O)[C@H](CC(C)C)NC(=O)[C@H](CS)NC(=O)[C@@H](CCCNC(=N)N)NC(=O)[C@@H](N)C(C)C)C(=O)N[C@@H](Cc1ccccc1)C(=O)N[C@@H](CCCNC(=N)N)C(=O)N1CCC[C@H]1C(=O)N1CCC[C@H]1C(=O)N[C@@H](CS)C(=O)N[C@@H](CS)C(=O)N[C@@H](CCC(N)=O)C(=O)N[C@@H](CCCCN)C(=O)NCC(=O)N1CCC[C@H]1C(=O)N[C@@H](CO)C(=O)N[C@@H](Cc1ccccc1)C(=O)N[C@@H](C)C(=O)N[C@@H](CCCNC(=N)N)C(=O)N[C@@H](Cc1cnc[nH]1)C(=O)N[C@@H](CO)C(=O)N[C@@H](CCCNC(=N)N)C(=O)N[C@@H](CS)C(=O)N[C@H](C(=O)N[C@@H](Cc1ccc(O)cc1)C(=O)N[C@@H](Cc1ccc(O)cc1)C(=O)N[C@H](C(=O)N[C@@H](CCC(N)=O)C(=O)N[C@@H](CO)C(=O)N[C@@H](CCCNC(=N)N)C(=O)N[C@@H](CCC(=O)O)C(=O)O)[C@@H](C)O)C(C)C`, for which the IC50 in test [1] came out at 1200 nM.

Turning to `CC[C@H](C)[C@@H]1NC(=O)[C@H](CCCNC(=N)N)NC(=O)[C@H](CCCNC(=N)N)NC(=O)[C@@H](NC(=O)[C@H](Cc2ccc(O)cc2)NC(=O)[C@H](C)NC(=O)[C@H](C)NC(=O)[C@H](C)NC(=O)[C@H](C)NC(=O)[C@H](CC(=O)O)NC(=O)[C@H](Cc2ccc(O)cc2)NC(=O)[C@@H]2CCCN2C(=O)[C@H](CO)NC(=O)[C@H](CCCNC(=N)N)NC(=O)[C@@H]2CSSC[C@H](NC(=O)[C@@H](N)[C@@H](C)O)C(=O)N[C@@H](CCCNC(=N)N)C(=O)N[C@@H](CO)C(=O)N[C@@H](CCCNC(=N)N)C(=O)NCC(=O)N[C@@H](CCCNC(=N)N)C(=O)N[C@@H](Cc3ccc(O)cc3)C(=O)N2)CSSC[C@@H](C(=O)N[C@H](C(=O)O)C(C)C)NC(=O)[C@H](C)NC(=O)[C@H](CC(=O)O)NC(=O)[C@H]([C@@H](C)O)NC1=O` (HELM PEPTIDE1{T.C.R.S.R.G.R.Y.C.R.S.P.Y.D.A.A.A.A.Y.C.R.R.I.T.D.A.C.V}$PEPTIDE1,PEPTIDE1,2:R3-9:R3|PEPTIDE1,PEPTIDE1,20:R3-27:R3$$$V2.0), in test [1], the IC50 is > 10000 nM. Also, in test [2], the result was inactive.

Consider `CC[C@H](C)[C@@H]1NC(=O)[C@H](CCCNC(=N)N)NC(=O)[C@H](CCCNC(=N)N)NC(=O)[C@@H](NC(=O)[C@H](Cc2ccc(O)cc2)NC(=O)[C@H](CCCNC(=N)N)NC(=O)[C@H](C)NC(=O)[C@H](CCCNC(=N)N)NC(=O)[C@H](C)NC(=O)[C@H](CC(=O)O)NC(=O)[C@H](Cc2ccc(O)cc2)NC(=O)[C@@H]2CCCN2C(=O)[C@H](CO)NC(=O)[C@H](CCCNC(=N)N)NC(=O)[C@@H]2CSSC[C@H](NC(=O)[C@@H](N)[C@@H](C)O)C(=O)N[C@@H](CCCNC(=N)N)C(=O)N[C@@H](CO)C(=O)N[C@@H](CO)C(=O)NCC(=O)N[C@@H](CCCNC(=N)N)C(=O)N[C@@H](Cc3ccc(O)cc3)C(=O)N2)CSSC[C@@H](C(=O)N[C@H](C(=O)O)C(C)C)NC(=O)[C@H](C)NC(=O)[C@H](CC(=O)O)NC(=O)[C@H]([C@@H](C)O)NC1=O`, for which, in test [1], the IC50 stood at 230 nM.
